Results from patent US7132536B2, “Triaza- and tetraaza-anthracenedione derivatives, their preparation and their use as pharmaceuticals” (Sanofi-aventis Deutschland GmbH, priority 2003, dated 2006).
Structures can show the parent of a compound that is named as a salt.

Tested on: eNOS promoter
Experiment: Activation of eNOS transcription (eNOS promoter-luciferase reporter gene assay)
Assay type: cell-based
Conditions: human endothelial cell line stably transfected with eNOS promoter-firefly luciferase construct; 18 h incubation; EC50 determined graphically; read-out: EC50 of transcription induction ratio (TIR)
Experimental: Activation of eNOS transcription was measured as described in detail by Li et al., “Activation of protein kinase C alpha and/or epsilon enhances transcription of the human endothelial nitric oxide synthase gene”, Mol. Pharmacol. 53 (1998) 630. Briefly, a 3.5 kB long fragment 5′ of the starting codon of the eNOS gene was cloned, sequenced and cloned in firefly luciferase expression plasmids to monitor activation of the eNOS promoter by reporter gene activity. A human endothelial cell line stable transfected and expressing this promoter-reporter construct was used for compound testing. Cells were incubated for 18 h with the compounds.
All compounds were dissolved in sterile dimethylsulfoxide (DMSO). A final concentration of 0.5% DMSO in complete medium was allowed. Induction of reporter gene expression in these cells was measured using a standard luciferase assay system (Promega, Cat. No. E150) according to the manufacturer's instructions. Luciferase induction in cells incubated with compounds were compared to those incubated with solvent alone. The ratio of both activities (transcription induction ratio, TIR) was plotted as a function of compound concentration. Typically, TIR values started at low concentrations at a ratio of 1, indicating no compound effect, and extended up to a maximum TIR value TIR(max) which indicates the increase of the eNOS transcription. EC50 values of transcription induction ratios as a function of compound concentration were determined graphically.

Compound | EC50
CC(C)[C@H]1C(=O)N(Cc2cccc3ccccc23)CC2N(CCCn3ccnc3)c3ccc([N+](=O)[O-])cc3C(=O)N21 (stereo partly drawn) [Example 3, (4S)-9-(3-(Imidazol-1-yl)propyl)-4-isopropyl-2-(naphth-1-ylmethyl)-6-nitro-1,2,9,9a-tetrahydro-2,4a,9-triaza-anthracene-3,10(4H)-dione trifluoroacetic acid salt] | 20 µM
CC(C)[C@H]1C(=O)N(Cc2ccc(C(C)(C)C)cc2)CC2N(CCCn3ccnc3)c3ccc([N+](=O)[O-])cc3C(=O)N21 (stereo partly drawn) [Example 2, (4S)-2-(4-tert-Butylbenzyl)-9-(3-(imidazol-1-yl)propyl)-4-isopropyl-6-nitro-1,2,9,9a-tetrahydro-2,4a,9-triaza-anthracene-3,10(4H)-dione trifluoroacetic acid salt] | 1.2 µM
COc1ccc(C[C@H]2C(=O)N(CCCCc3ccccc3)CC3N(CCCn4ccnc4)c4ccc([N+](=O)[O-])cc4C(=O)N32)cc1OC (stereo partly drawn) [Example 6, (4S)-4-(3,4-Dimethoxybenzyl)-9-(3-(imidazol-1-yl)propyl)-6-nitro-2-(4-phenylbutyl)-1,2,9,9a-tetrahydro-2,4a,9-triaza-anthracene-3,10(4H)-dione trifluoroacetic acid salt] | 24 µM
CC(C)[C@H]1C(=O)N(CCCCc2ccccc2)CC2N(CCCn3ccnc3)c3ccc([N+](=O)[O-])cc3C(=O)N21 (stereo partly drawn) [Example 1, (4S)-9-(3-(Imidazol-1-yl)propyl)-4-isopropyl-6-nitro-2-(4-phenylbutyl)-1,2,9,9a-tetrahydro-2,4a,9-triaza-anthracene-3,10(4H)-dione trifluoroacetic acid salt] | 2.2 µM
O=C1[C@H](Cc2c[nH]cn2)N2C(=O)c3cc([N+](=O)[O-])ccc3N(CCCCc3ccccc3)C2CN1CCCCc1ccccc1 (stereo partly drawn) [Example 8, (4S)-4-(1H—Imidazol-4-ylmethyl)-6-nitro-2,9-bis(4-phenylbutyl)-1,2,9,9a-tetrahydro-2,4a,9-triaza-anthracene-3,10(4H)-dione trifluoroacetic acid salt] | 6 µM
O=C1[C@H](C2CCCCC2)N2C(=O)c3cc([N+](=O)[O-])ccc3N(CCCn3ccnc3)C2CN1CCCCc1ccccc1 (stereo partly drawn) [Example 5, (4S)-4-Cyclohexyl-9-(3-(imidazol-1-yl)propyl)-6-nitro-2-(4-phenylbutyl)-1,2,9,9a-tetrahydro-2,4a,9-triaza-anthracene-3,10(4H)-dione trifluoroacetic acid salt] | 2.8 µM
O=C1[C@H](Cc2cccc(F)c2)N2C(=O)c3cc([N+](=O)[O-])ccc3N(CCCn3ccnc3)C2CN1CCCCc1ccccc1 (stereo partly drawn) [Example 4, (4S)-4-(3-Fluorobenzyl)-9-(3-(imidazol-1-yl)propyl)-6-nitro-2-(4-phenylbutyl)-1,2,9,9a-tetrahydro-2,4a,9-triaza-anthracene-3,10(4H)-dione trifluoroacetic acid salt] | 8 µM
CC(C)[C@H]1C(=O)N(CCCCc2ccccc2)CC2N(CCCn3ccnc3)c3ccc(C(F)(F)F)cc3C(=O)N21 (stereo partly drawn) [Example 10, (4S)-9-(3-(Imidazol-1-yl)propyl)-4-isopropyl-2-(4-phenylbutyl)-6-trifluoromethyl-1,2,9,9a-tetrahydro-2,4a,9-triaza-anthracene-3,10(4H)-dione trifluoroacetic acid salt] | 12 µM
CC(C)[C@H]1C(=O)N(CCCCc2ccccc2)CC2N(CCc3ccncc3)c3ccc([N+](=O)[O-])cc3C(=O)N21 (stereo partly drawn) [Example 7, (4S)-4-Isopropyl-6-nitro-2-(4-phenylbutyl)-9-(2-(pyridin-4-yl)ethyl)-1,2,9,9a-tetrahydro-2,4a,9-triaza-anthracene-3,10(4H)-dione trifluoroacetic acid salt] | 20 µM
O=C1[C@H](Cc2c[nH]cn2)N2C(=O)c3cc([N+](=O)[O-])ccc3N(Cc3ccc(OC(F)(F)F)cc3)C2CN1CCCCc1ccccc1 (stereo partly drawn) [Example 9, (4S)-4-(1H-Imidazol-4-ylmethyl)-6-nitro-2-(4-phenylbutyl)-9-(4-trifluoromethoxy-benzyl)-1,2,9,9a-tetrahydro-2,4a,9-triaza-anthracene-3,10(4H)-dione trifluoroacetic acid salt] | 8.4 µM

Further lines, results first:

EC50 | Compound
0.4 µM | CC[C@H]1C(=O)N(Cc2ccc(C(C)(C)C)cc2)CC2N(CCCn3ccnc3)c3ccc([N+](=O)[O-])cc3C(=O)N21 (stereo partly drawn) [Example 38, (4S)-2-(4-tert-Butylbenzyl)-4-ethyl-9-(3-(imidazol-1-yl)propyl)-6-nitro-1,2,9,9a-tetrahydro-2,4a,9-triaza-anthracene-3,10(4H)-dione trifluoroacetic acid salt]
4 µM | CC(C)[C@H]1C(=O)N(Cc2ccc(C(C)(C)C)cc2)CC2N(CCCn3ccnc3)c3ccc(C(F)(F)F)cc3C(=O)N21 (stereo partly drawn) [Example 15, (4S)-2-(4-tert-Butylbenzyl)-9-(3-(imidazol-1-yl)propyl)-4-isopropyl-6-trifluoromethyl-1,2,9,9a-tetrahydro-2,4a,9-triaza-anthracene-3,10(4H)-dione trifluoroacetic acid salt]
100 µM | CC(C)C1C(=O)N(Cc2ccc(C(C)(C)C)cc2)CC2N(CCCn3ccnc3)c3cccnc3C(=O)N12 (stereo not drawn) [Example 36, 6-(4-tert-Butylbenzyl)-10-(3-(imidazol-1-yl)propyl)-8-isopropyl-5,6,10,10a-tetrahydro-1,6,8a,10-tetraaza-anthracene-7,9(8H)-dione trifluoroacetic acid salt]
0.29 µM | CC(C)C1C(=O)N(Cc2ccc(C(C)(C)C)cc2)CC2N(CCCn3ccnc3)c3ccc([N+](=O)[O-])cc3C(=O)N12 (stereo not drawn) [Example 39, 2-(4-tert-Butylbenzyl)-9-(3-(imidazol-1-yl)propyl)-4-isopropyl-6-nitro-1,2,9,9a-tetrahydro-2,4a,9-triaza-anthracene-3,10(4H)-dione trifluoroacetic acid salt]
0.22 µM | CCC1C(=O)N(Cc2ccc(C(C)(C)C)cc2)CC2N(CCc3ccncc3)c3ccc([N+](=O)[O-])cc3C(=O)N12 (stereo not drawn) [Example 40, 2-(4-tert-Butylbenzyl)-4-ethyl-6-nitro-9-(2-(pyridin-4-yl)ethyl)-1,2,9,9a-tetrahydro-2,4a,9-triaza-anthracene-3,10(4H)-dione trifluoroacetic acid salt]
7 µM | O=C1[C@H](C2CCCCC2)N2C(=O)c3cc(C(F)(F)F)ccc3N(CCCn3ccnc3)C2CN1CCCCc1ccccc1 (stereo partly drawn) [Example 13, (4S)-4-Cyclohexyl-9-(3-(imidazol-1-yl)propyl)-2-(4-phenylbutyl)-6-trifluoromethyl-1,2,9,9a-tetrahydro-2,4a,9-triaza-anthracene-3,10(4H)-dione trifluoroacetic acid salt]
20 µM | CC(C)[C@H]1C(=O)N(Cc2ccc(C(F)(F)F)cc2)CC2N(CCc3ccncc3)c3ccc(C(F)(F)F)cc3C(=O)N21 (stereo partly drawn) [Example 12, (4S)-4-Isopropyl-9-(2-(pyridin-4-yl)ethyl)-6-trifluoromethyl-2-(4-trifluoromethylbenzyl)-1,2,9,9a-tetrahydro-2,4a,9-triaza-anthracene-3,10(4H)-dione trifluoroacetic acid salt]
12 µM | COc1ccc(CN2CC3N(CCCn4ccnc4)c4ccc(C(F)(F)F)cc4C(=O)N3[C@@H](C(C)C)C2=O)c(OC)c1 (stereo partly drawn) [Example 14, (4S)-2-(2,4-Dimethoxybenzyl)-9-(3-(imidazol-1-yl)propyl)-4-isopropyl-6-trifluoromethyl-1,2,9,9a-tetrahydro-2,4a,9-triaza-anthracene-3,10(4H)-dione trifluoroacetic acid salt]
20 µM | CC(C)[C@H]1C(=O)N(Cc2ccc(C(F)(F)F)cc2)CC2N(CCCn3ccnc3)c3ccc(C(F)(F)F)cc3C(=O)N21 (stereo partly drawn) [Example 11, (4S)-9-(3-(Imidazol-1-yl)propyl)-4-isopropyl-6-trifluoromethyl-2-(4-trifluoromethyl-benzyl)-1,2,9,9a-tetrahydro-2,4a,9-triaza-anthracene-3,10(4H)-dione trifluoroacetic acid salt]
100 µM | Cc1ccc2c(n1)C(=O)N1C(C(C)C)C(=O)N(Cc3ccc(C(C)(C)C)cc3)CC1N2CCCn1ccnc1 (stereo not drawn) [Example 37, 6-(4-tert-Butylbenzyl)-10-(3-(imidazol-1-yl)propyl)-8-isopropyl-2-methyl-5,6,10,10a-tetrahydro-1,6,8a,10-tetraaza-anthracene-7,9(8H)-dione trifluoroacetic acid salt]
8 µM | O=C1[C@H](Cc2cccc(F)c2)N2C(=O)c3cc(C(F)(F)F)ccc3N(CCCn3ccnc3)C2CN1CCCCc1ccccc1 (stereo partly drawn) [Example 16, (4S)-4-(3-Fluorobenzyl)-9-(3-(imidazol-1-yl)propyl)-2-(4-phenylbutyl)-6-trifluoromethyl-1,2,9,9a-tetrahydro-2,4a,9-triaza-anthracene-3,10(4H)-dione trifluoroacetic acid salt]
